# “Also recorded” adds a separate entry of the source. Like-named read-outs stand apart in the source and are kept apart here.
# How the values were obtained:
# Chimera 2 [1] = molecular target: T1, Chimera 2 (Homo sapiens, UniProt P36544, M226I/T225V); experiment: [3H]A-585539 radioligand binding, HEK-293 membranes/homogenates; parameters: expressed in transfected cells; conditions: increasing concentrations
# Chimera 2 [2] = molecular target: T1, Chimera 2; experiment: Membrane potential imaging (FLIPR-FMP) in HEK-293 cells; format: cell-based; parameters: expressed in transfected cells; conditions: for Modulation of submaximum agonist-evoked membrane potential response (words): FMP
# [3] = molecular target: T2, rat brain α7* nicotinic acetylcholine receptors (Rattus norvegicus, UniProt Q05941); experiment: [3H]A-585539 radioligand binding, rat brain homogenates; conditions: rat cortex, increasing concentrations
# T2 construct: expressed both as a native (rat cortex) or α7/5-HT3 chimeric receptor; from tissue; host or cells: rat brain / rat cortex homogenates
# T2 sequence (Q05941 23-502): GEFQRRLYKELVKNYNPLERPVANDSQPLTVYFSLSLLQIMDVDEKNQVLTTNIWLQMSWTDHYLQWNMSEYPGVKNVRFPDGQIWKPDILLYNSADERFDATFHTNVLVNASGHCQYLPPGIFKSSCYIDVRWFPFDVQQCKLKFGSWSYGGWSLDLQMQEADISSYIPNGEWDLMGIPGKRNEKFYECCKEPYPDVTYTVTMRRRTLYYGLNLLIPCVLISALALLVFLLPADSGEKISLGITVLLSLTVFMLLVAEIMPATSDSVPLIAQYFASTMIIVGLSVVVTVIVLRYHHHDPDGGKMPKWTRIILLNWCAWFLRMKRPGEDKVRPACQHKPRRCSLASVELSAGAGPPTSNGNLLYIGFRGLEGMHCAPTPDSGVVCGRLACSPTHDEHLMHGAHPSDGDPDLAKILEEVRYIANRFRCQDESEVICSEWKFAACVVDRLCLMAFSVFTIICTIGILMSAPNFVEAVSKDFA
# [4] = molecular target: T3, wild-type α7 nicotinic acetylcholine receptor (Homo sapiens, UniProt P36544); experiment: Two electrode voltage clamp in Xenopus oocytes, agonist and modulator responses; format: cell-based; conditions: for Effect of modulator on ACh-evoked current (words): Xenopus oocytes
# T3 construct: expressed in transfected cells; host or cells: Xenopus laevis oocytes
# T3 sequence (P36544 23-502): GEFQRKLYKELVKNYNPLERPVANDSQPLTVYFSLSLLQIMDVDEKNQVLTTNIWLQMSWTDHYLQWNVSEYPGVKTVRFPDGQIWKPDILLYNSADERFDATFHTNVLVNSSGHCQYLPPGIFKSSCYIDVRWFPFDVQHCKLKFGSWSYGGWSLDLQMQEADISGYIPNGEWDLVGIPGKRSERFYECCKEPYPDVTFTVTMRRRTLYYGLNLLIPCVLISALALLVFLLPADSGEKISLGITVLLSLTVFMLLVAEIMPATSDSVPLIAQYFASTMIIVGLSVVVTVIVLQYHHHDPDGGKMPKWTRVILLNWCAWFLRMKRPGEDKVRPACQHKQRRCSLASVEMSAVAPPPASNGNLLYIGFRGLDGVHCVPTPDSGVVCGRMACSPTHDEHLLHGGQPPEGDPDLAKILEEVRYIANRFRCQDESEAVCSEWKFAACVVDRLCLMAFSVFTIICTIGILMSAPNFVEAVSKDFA
# Chimera 1 [5] = molecular target: T4, Chimera 1 (Homo sapiens, UniProt P36544, M226I/T225V); experiment: Two electrode voltage clamp in Xenopus oocytes (POETs), agonist and modulator responses; format: cell-based; parameters: expressed in transfected cells; host or cells: Xenopus laevis oocytes (transient, A1)
# T4 sequence (P36544 with tags, fused parts or gaps T225V/M226I): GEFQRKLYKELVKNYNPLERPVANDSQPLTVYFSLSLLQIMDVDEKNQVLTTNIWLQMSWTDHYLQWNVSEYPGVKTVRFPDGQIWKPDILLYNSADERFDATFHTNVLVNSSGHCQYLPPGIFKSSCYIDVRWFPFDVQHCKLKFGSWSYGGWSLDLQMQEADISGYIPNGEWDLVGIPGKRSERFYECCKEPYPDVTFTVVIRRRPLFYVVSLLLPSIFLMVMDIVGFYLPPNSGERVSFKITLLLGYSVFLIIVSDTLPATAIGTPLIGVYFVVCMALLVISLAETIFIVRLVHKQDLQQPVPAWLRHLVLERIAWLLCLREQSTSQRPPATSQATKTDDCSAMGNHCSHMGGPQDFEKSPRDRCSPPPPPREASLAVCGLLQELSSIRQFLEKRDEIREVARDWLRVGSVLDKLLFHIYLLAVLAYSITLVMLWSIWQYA
# Chimera 2 [6] = molecular target: T1, Chimera 2; experiment: Whole cell patch clamp in HEK-293 cells; format: cell-based; parameters: expressed in transfected cells
# Chimera 2 [7] = molecular target: T1, Chimera 2; experiment: Two electrode voltage clamp in Xenopus oocytes (POETs), agonist and modulator responses; format: cell-based; parameters: expressed in transfected cells; host or cells: Xenopus laevis oocytes (transient, A2)
# [8] = molecular target: T5, wild-type human 5-HT3A receptors (Homo sapiens, UniProt P46098); experiment: Two electrode voltage clamp in Xenopus oocytes, agonist and modulator responses; format: cell-based
# T5 construct: expressed in transfected cells; host or cells: Xenopus laevis oocytes
# T5 sequence (P46098 1-484 isoform P46098-4): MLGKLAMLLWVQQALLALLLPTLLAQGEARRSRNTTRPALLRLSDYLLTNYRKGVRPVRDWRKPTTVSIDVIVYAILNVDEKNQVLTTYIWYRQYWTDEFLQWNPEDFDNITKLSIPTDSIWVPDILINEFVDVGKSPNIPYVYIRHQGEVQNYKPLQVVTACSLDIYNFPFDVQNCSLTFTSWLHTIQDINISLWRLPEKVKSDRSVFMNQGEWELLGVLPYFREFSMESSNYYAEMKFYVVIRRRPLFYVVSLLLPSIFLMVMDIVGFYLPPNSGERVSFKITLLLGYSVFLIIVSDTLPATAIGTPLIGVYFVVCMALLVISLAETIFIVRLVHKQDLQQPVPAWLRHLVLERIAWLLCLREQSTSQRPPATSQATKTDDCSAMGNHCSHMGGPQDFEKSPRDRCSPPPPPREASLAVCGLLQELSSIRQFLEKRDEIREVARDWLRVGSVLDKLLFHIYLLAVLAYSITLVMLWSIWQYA
# Chimera 1 [9] = molecular target: T4, Chimera 1; experiment: Membrane potential imaging (FLIPR-FMP) in HEK-293 cells; format: cell-based; parameters: expressed in transfected cells; conditions: for Modulation of submaximum agonist-evoked membrane potential response (words): FMP
# Chimera 8 = molecular target: T6, Chimera 8 (Homo sapiens, UniProt P46098, I238M/V237T); experiment: Two electrode voltage clamp in Xenopus oocytes, reverse 5HT3-α7 chimera; format: cell-based
# T6 construct: expressed in transfected cells; host or cells: Xenopus laevis oocytes
# T6 sequence (P46098 with tags, fused parts or gaps isoform P46098-4 V243T/I244M): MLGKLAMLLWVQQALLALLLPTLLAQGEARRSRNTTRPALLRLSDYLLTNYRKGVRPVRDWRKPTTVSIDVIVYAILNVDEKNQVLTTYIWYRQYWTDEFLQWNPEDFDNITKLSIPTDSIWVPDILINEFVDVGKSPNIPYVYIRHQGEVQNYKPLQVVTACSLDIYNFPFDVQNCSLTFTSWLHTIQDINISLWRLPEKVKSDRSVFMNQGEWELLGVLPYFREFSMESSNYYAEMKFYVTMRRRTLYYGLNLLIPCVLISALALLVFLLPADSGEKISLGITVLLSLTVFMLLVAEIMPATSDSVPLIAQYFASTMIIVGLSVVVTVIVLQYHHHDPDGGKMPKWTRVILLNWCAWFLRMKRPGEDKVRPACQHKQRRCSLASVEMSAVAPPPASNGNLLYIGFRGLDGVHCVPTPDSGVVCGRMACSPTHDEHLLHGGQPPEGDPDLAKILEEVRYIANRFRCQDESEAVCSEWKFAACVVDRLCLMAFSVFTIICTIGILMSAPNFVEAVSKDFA
# Protocol: Xenopus laevis oocytes were prepared and injected as previously described {Eisele, 1993 #2; Krause, 1998 #4}. Briefly, ovaries were harvested from female Xenopus. Isolation of the oocytes was obtained by enzymatic dissociation using collagenase type I in a medium deprived of calcium and by gentle mechanical agitation for approximately 3 hours. Oocytes stage 5-6 were manually selected on the next day and injected into the nucleus with 2 ng plasmid containing the cDNA of interest. Oocytes were then placed in a 96 well microtiter plate in Barth solution and used for electrophysiological investigation two to five days later. All recordings were performed at 18° C. and cells were superfused with OR2 medium containing in mM:NaCl 82.5, KCI 2.5, HEPES 5, CaCl2.2H2O 2.5, MgCl2.6H2O 1, pH 7.4, and 0.5 μM atropine was added to prevent possible activation of endogenous muscarinic receptors. Unless indicated cells were held at −100 mV using a two electrode voltage clamp apparatus connected to a Geneclamp amplifier (Molecular Devices). Data were captured and analyzed using data acquisition and analysis software. […] Values indicated throughout the text are given with their respective standard error of the mean (SEM). For statistical analysis we used the unpaired, two-tailed Student's T test using either excel (Microsoft) or Matlab (Mathworks Inc.).
# To examine the putative role of the transmembrane domains, a reverse chimera comprising the 5-HT3 ligand binding domain and the transmembrane domain of α7 was designed and constructed. […] See FIGS. 13A and B. To best evaluate a putative allosteric modulation, currents evoked by low agonist concentration were also investigated, but exposure to either NS-1738 or PNU-120596 caused no detectable modification of the response amplitude or time course. […] Data not shown. […] The cartoon above the traces in FIG. 13 illustrates the schematic structure of a single subunit inserted into the membrane. The gray line corresponds to the extracellular 5HT3 receptor sequence, whereas the dark line indicates the α7 segments. Despite the low yield of expression, significant and reproducible currents were evoked by brief exposure to 5-HT.
# [10] = HEK-293 cells, listed as 5-hydroxyindole
# [11] = HEK293, read-out: Maximum efficacy (mean±S.E.M.), membrane potential imaging, HEK-293 cells
# [12] = read-out: Agonist potency, membrane potential imaging: EC50 (95% C.I.), HEK-293 cells
# [13] = read-out: Maximum efficacy (mean±S.E.M.), agonist-evoked current
# T1 sequence (P36544 with tags, fused parts or gaps T225V/M226I): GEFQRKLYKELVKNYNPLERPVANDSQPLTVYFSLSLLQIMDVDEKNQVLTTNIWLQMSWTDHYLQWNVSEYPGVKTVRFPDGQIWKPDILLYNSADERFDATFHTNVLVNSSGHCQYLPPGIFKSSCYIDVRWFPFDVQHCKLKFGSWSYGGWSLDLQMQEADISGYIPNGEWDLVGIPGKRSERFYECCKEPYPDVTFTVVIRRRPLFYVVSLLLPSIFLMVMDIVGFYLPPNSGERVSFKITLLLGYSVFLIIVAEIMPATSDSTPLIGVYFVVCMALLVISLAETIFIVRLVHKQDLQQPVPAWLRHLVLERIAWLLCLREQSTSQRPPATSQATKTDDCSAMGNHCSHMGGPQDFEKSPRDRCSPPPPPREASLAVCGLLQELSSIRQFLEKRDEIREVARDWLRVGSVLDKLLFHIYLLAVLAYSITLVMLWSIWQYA
structure (smiles),measurement,setting,value
"Oc1ccc2[nH]ccc2c1 [5-HI, 5-hydroxyindole]",Competition / displacement of [3H]A-585539 binding,Chimera 2 [1],neither compound effectively displaced the binding
same,Modulation of submaximum agonist-evoked membrane potential response (words),Chimera 2 [2]; HEK-293 cells,potentiated submaximum NS6784 evoked responses; also recorded: effective as positive allosteric modulators; also recorded: effective in both Chimeras
same,Modulation of submaximum agonist-evoked membrane potential response (words),Chimera 2 [2]; [10],able to potentiate both Chimeras
same,EC50,"Chimera 2 [2]; read-out: FMP imaging: positive allosteric modulation EC50 (95% C.I.), submaximum NS6784 (60-70 nM)",324 µM
same,Maximum positive allosteric modulation efficacy,Chimera 2 [2]; submaximum NS6784 60-70 nM,177±8%
same,Competition / displacement of [3H]A-585539 binding,[3],neither compound effectively displaced the binding
same,EC50,[4],667 µM
same,Percentage potentiation of submaximum agonist-evoked responses (mean±S.E.M.),[4]; 100 μM ACh,516±59%
same,ng of ACh curve after modulator,[4]; 1 mM 5-HI,1.97 ± 0.84
same,EC50,"[4]; Positive allosteric modulation potency, two electrode voltage clamp: EC50 (95% C.I.), submaximum ACh (100 μM)-evoked response",500 to 700 µM
same,Effect of modulator on ACh-evoked current (words),[4],substantial increase in the amplitude of the subsequent ACh-evoked current
same,Percentage potentiation of submaximum agonist-evoked responses (mean±S.E.M.),Chimera 1 [5]; 100 μM ACh,428±23%
same,ng of ACh curve after modulator,Chimera 1 [5]; 1 mM 5-HI,1.4 ± 0.13
same,Effect of modulator on ACh-evoked current (words),Chimera 1 [5]; Xenopus oocytes,positive modulation is still observed
same,EC50,"Chimera 1 [5]; read-out: Positive allosteric modulation potency, two electrode voltage clamp: EC50 (95% C.I.), submaximum ACh (100 μM)-evoked response",0.5 mM
same,Directly evoked peak response normalized to 100 μM ACh,Chimera 2 [6]; 10 mM,26.4±7.1%
same,Directly evoked total charge (integral) normalized to 100 μM ACh,Chimera 2 [6]; 10 mM,52.4±10.3%
same,Direct current activation by modulator alone,"Chimera 2 [6]; genistein 100 μM, 5-HI 10 mM",Qualitatively similar responses were also obtained
same,Positive allosteric modulation of ACh-evoked current,"Chimera 2 [6]; genistein 30-50 μM, 5-HI 1 mM",effective as positive allosteric modulators
same,"Peak current amplitude evoked by compound alone, normalized to 10 μM ACh",Chimera 2 [7]; 1 mM,5.4+/−1.8%
same,ng of ACh curve after modulator,Chimera 2 [7]; 1 mM 5-HI,1.35 ± 0.25
same,"Peak current amplitude evoked by compound alone, normalized to 10 μM ACh",Chimera 2 [7]; 3 mM,37.8+/−11.6%
same,Percentage potentiation of submaximum agonist-evoked responses (mean±S.E.M.),Chimera 2 [7]; 10-30 μM ACh,262±39%
same,Direct current activation by modulator alone,Chimera 2 [7]; Xenopus oocytes,could also evoke responses in Chimera 2; also recorded: evoked unique agonist-like current
same,EC50,"Chimera 2 [7]; read-out: Positive allosteric modulation potency, two electrode voltage clamp: EC50 (95% C.I.), submaximum ACh (10-30 μM)-evoked response",496 µM
same,Percentage potentiation of submaximum agonist-evoked responses (mean±S.E.M.),[8]; 1-3 μM 5-HT,58±9%
same,Effect of modulator on agonist (5-HT)-evoked current,[8]; Xenopus oocytes,Neither compound increased the responses
same,inhibition at 10000 µM,"[8]; at 10,000 μM (10 mM), read-out: Observed % inhibitory effect on submaximum 5-HT-evoked response",~40%
same,Modulation of submaximum agonist-evoked membrane potential response (words),Chimera 1 [9]; HEK-293 cells,potentiated the submaximum α7 agonist (NS6784) evoked membrane potential depolarization; also recorded: effective in both Chimeras
same,Modulation of submaximum agonist-evoked membrane potential response (words),Chimera 1 [9]; [10],able to potentiate both Chimeras
same,EC50,"Chimera 1 [9]; read-out: FMP imaging: positive allosteric modulation EC50 (95% C.I.), submaximum NS6784 (120-200 nM)",234 µM
same,Maximum positive allosteric modulation efficacy,Chimera 1 [9]; submaximum NS6784 120-200 nM,204±9%
"NCCc1c[nH]c2ccc(O)cc12 [5-HT, 5-hydroxytryptamine]",Agonist-evoked current,Chimera 8,significant inward currents
same,Emax,"[8]; Xenopus oocytes, read-out: Maximum activation",100%
"C[N+](C)(C)CCO [Choline, choline]",Emax,Chimera 2 [2]; [11],101 ± 6%
same,FLIPR-FMP pEC50 ± SEM,Chimera 2 [2]; HEK-293 cells,4.4 ± 0.04
same,EC50,Chimera 2 [2]; [12],37.8 µM
same,EC50,"[4]; Agonist potency, two electrode voltage clamp, Xenopus oocyte: EC50 (95% C.I.), peak current amplitude",1120 µM
same,Emax,[4]; [13],81 ± 4%
same,Electrophysiology (POETs) pEC50 ± SEM,Chimera 1 [5]; Xenopus oocytes,2.9 ± 0.06
same,EC50,"Chimera 1 [5]; read-out: Agonist potency, two electrode voltage clamp, Xenopus oocyte: EC50 (95% C.I.), peak current amplitude",1.51 mM
same,Emax,Chimera 1 [5]; [13],91 ± 7%
same,Electrophysiology (POETs) pEC50 ± SEM,Chimera 2 [7],3.7 ± 0.08
same,EC50,"Chimera 2 [7]; read-out: Agonist potency, two electrode voltage clamp, Xenopus oocyte: EC50 (95% C.I.)",214 µM
same,Emax,Chimera 2 [7]; [13],78 ± 4%
same,Emax,Chimera 1 [9]; [11],132 ± 9%
same,FLIPR-FMP pEC50 ± SEM,Chimera 1 [9]; HEK-293 cells,2.9 ± 0.06
same,EC50,Chimera 1 [9]; [12],285 µM
"CC[C@H](C)[C@H]1O[C@]2(CC[C@@H]1C)C[C@@H]1C[C@@H](C/C=C(\C)[C@@H](O[C@H]3C[C@H](OC)[C@@H](O[C@H]4C[C@H](OC)[C@@H](O)[C@H](C)O4)[C@H](C)O3)[C@@H](C)/C=C/C=C3\CO[C@@H]4[C@H](O)C(C)=C[C@@H](C(=O)O1)[C@]34O)O2 [IVM, ivermectin]",ng of ACh curve after modulator,[4]; 30 μM IVM,1.4 ± 0.16
same,Effect of modulator on ACh-evoked current (words),[4],substantial increase in the amplitude of the subsequent ACh-evoked current
same,ng of ACh curve after modulator,Chimera 1 [5]; 30 μM IVM,1.8 ± 0.05
same,Effect of modulator on ACh-evoked current (words),Chimera 1 [5]; Xenopus oocytes,absence of effects
same,ng of ACh curve after modulator,Chimera 2 [7]; 30 μM IVM,1.1 ± 0.12

# From patent US8759504B2, “Cholinergic/serotoninergic receptor and uses thereof” (AbbVie Inc., priority 2007, dated 2014)
